Experimental data from PubChem BioAssay AID248 (DTP/NCI, 2004).
“And” between values parts separate entries of the source, which are not always exact repeats. Identical values can stand only once. Toxic doses and inconclusive results are not listed. No stated cut-off is given here; in the data, active means T/C of 150% or more; inactive means T/C below 125%.

Tested on: L1210 leukemia ip in BDF1 mice, survival T/C
Experiment: NCI In Vivo Anticancer Drug Screen. Data for tumor model L1210 Leukemia (intraperitoneal) in B6D2F1 (BDF1) mice
Settings: endpoint: mean survival time, higher = longer survival
Method in brief: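 Mice bearing the transplanted tumor received compound or vehicle. Survival of the treated group was divided by that of the vehicle-treated control group to give the ratio.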

[1] = dose: 100.0 mg/kg/injection, schedule: Q01DX009 (ip), vehicle: gum acacia
[2] = dose: 200.0 mg/kg/injection, schedule: Q01DX009 (ip), vehicle: gum acacia
[3] = dose: 400.0 mg/kg/injection, schedule: Q01DX009 (ip), vehicle: gum acacia
[4] = dose: 100.0 mg/kg/injection, schedule: Q04DX003 (ip), vehicle: Klucel (hydroxypropylcellulose) (HPC)
[5] = dose: 200.0 mg/kg/injection, schedule: Q04DX003 (ip), vehicle: Klucel (hydroxypropylcellulose) (HPC)
[6] = dose: 400.0 mg/kg/injection, schedule: Q04DX003 (ip), vehicle: Klucel (hydroxypropylcellulose) (HPC)
[7] = dose: 50.0 mg/kg/injection, schedule: Q01DX009 (ip), vehicle: saline
[8] = dose: 100.0 mg/kg/injection, schedule: Q01DX009 (ip), vehicle: saline
[9] = dose: 100.0 mg/kg/injection, schedule: Q04DX003 (ip), vehicle: saline
[10] = dose: 200.0 mg/kg/injection, schedule: Q01DX009 (ip), vehicle: saline
[11] = dose: 200.0 mg/kg/injection, schedule: Q04DX003 (ip), vehicle: saline
[12] = dose: 400.0 mg/kg/injection, schedule: Q04DX003 (ip), vehicle: saline
[13] = dose: 100.0 mg/kg/injection, schedule: Q04DX002 (ip), vehicle: Klucel (hydroxypropylcellulose) (HPC)
[14] = dose: 200.0 mg/kg/injection, schedule: Q04DX002 (ip), vehicle: Klucel (hydroxypropylcellulose) (HPC)
[15] = dose: 400.0 mg/kg/injection, schedule: Q04DX002 (ip), vehicle: Klucel (hydroxypropylcellulose) (HPC)

Measured: T/C

COc1ccc(NC(=O)Nc2cccc(C)c2C)cc1
inactive: [1] 96 % of control | dose: 100.0 mg/kg/injection, schedule: Q04DX003 (ip), vehicle: gum acacia 99 % of control | [2] 97 % of control | dose: 200.0 mg/kg/injection, schedule: Q04DX003 (ip), vehicle: gum acacia 91 % of control | [3] 94 % of control | dose: 400.0 mg/kg/injection, schedule: Q04DX003 (ip), vehicle: gum acacia 89 % of control

O=C1CC(N2C(=O)C3C4CCC(O4)C3C2=O)C(=O)N1 (stereo not drawn)
inactive: dose: 100.0 mg/kg/injection, schedule: Q04DX003 (ip), vehicle: saline with Tween-80 100 % of control | dose: 200.0 mg/kg/injection, schedule: Q04DX003 (ip), vehicle: saline with Tween-80 108 % of control | dose: 400.0 mg/kg/injection, schedule: Q04DX003 (ip), vehicle: saline with Tween-80 104 % of control

COC(C)C1C([N+](C)(C)C)CS1(=O)=O (stereo not drawn)
inactive: dose: 75.0 mg/kg/injection, schedule: Q01DX001 (ip), vehicle: saline 97 % of control | dose: 150.0 mg/kg/injection, schedule: Q01DX001 (ip), vehicle: saline 94 % of control

Cc1ccc([N+](=O)[O-])cc1NC(=O)Sc1ccc(C(C)(C)C)cc1
inactive: [4] 98 % of control | [5] 98 % of control | [6] 98 % of control

O=C1CC(=O)Nc2ccccc2N1
inactive: [7] 86 % of control | [8] 86 % of control | [9] 98 % of control | [10] 96 % of control | [11] 101 % of control | [12] 101 % of control

OC(COc1ccccc1)CC(O)(C(F)(F)F)C(F)(F)F (stereo not drawn)
inactive: dose: 75.0 mg/kg/injection, schedule: Q01DX009 (ip), vehicle: saline with Tween-80 92 % of control | dose: 150.0 mg/kg/injection, schedule: Q01DX009 (ip), vehicle: saline with Tween-80 89 % of control | dose: 300.0 mg/kg/injection, schedule: Q01DX009 (ip), vehicle: saline with Tween-80 103 % of control

Cc1cccc(C(=O)OCc2ccccc2CN(C)C)c1
inactive: dose: 75.0 mg/kg/injection, schedule: Q04DX002 (ip), vehicle: Klucel (hydroxypropylcellulose) (HPC) 91 % of control | dose: 150.0 mg/kg/injection, schedule: Q04DX002 (ip), vehicle: Klucel (hydroxypropylcellulose) (HPC) 94 % of control | dose: 300.0 mg/kg/injection, schedule: Q04DX002 (ip), vehicle: Klucel (hydroxypropylcellulose) (HPC) 94 % of control

CS(=O)(=O)N(CC(=O)O)Cc1ccccc1
inactive: [7] 101 % of control | dose: 50.0 mg/kg/injection, schedule: Q01DX009 (ip), vehicle: sodium bicarbonate 116 % of control | [8] 101 % of control | dose: 100.0 mg/kg/injection, schedule: Q01DX009 (ip), vehicle: sodium bicarbonate 106 % of control | dose: 100.0 mg/kg/injection, schedule: Q04DX003 (ip), vehicle: sodium bicarbonate 124 % of control | [10] 95 % of control | dose: 200.0 mg/kg/injection, schedule: Q01DX009 (ip), vehicle: sodium bicarbonate 101 % of control | dose: 200.0 mg/kg/injection, schedule: Q04DX003 (ip), vehicle: sodium bicarbonate 91 % of control | dose: 400.0 mg/kg/injection, schedule: Q01DX009 (ip), vehicle: saline 97 % of control | dose: 400.0 mg/kg/injection, schedule: Q01DX009 (ip), vehicle: sodium bicarbonate 104 % of control | dose: 400.0 mg/kg/injection, schedule: Q04DX003 (ip), vehicle: sodium bicarbonate 91 % of control

O=CNc1nc(Cl)c2ncn(C3OC(COCc4ccccc4)C(OCc4ccccc4)C3OCc3ccccc3)c2n1 (stereo not drawn)
inactive: dose: 12.5 mg/kg/injection, schedule: Q01DX005 (ip), vehicle: saline 104 % of control | dose: 25.0 mg/kg/injection, schedule: Q01DX005 (ip), vehicle: saline 98 % of control | dose: 50.0 mg/kg/injection, schedule: Q01DX005 (ip), vehicle: saline 102 % of control | dose: 100.0 mg/kg/injection, schedule: Q01DX005 (ip), vehicle: saline 113 % of control | dose: 200.0 mg/kg/injection, schedule: Q01DX005 (ip), vehicle: saline 106 % of control

CCCCCCCCCCCCCCCNC1=C(OC)C(=O)C(NCCCCCCCCCCCCCCC)=C(OC)C1=O
inactive: dose: 100.0 mg/kg/injection, schedule: Q01DX001 (ip), vehicle: other 90 % of control | dose: 200.0 mg/kg/injection, schedule: Q01DX001 (ip), vehicle: other 93 % of control | dose: 400.0 mg/kg/injection, schedule: Q01DX001 (ip), vehicle: other 96 % of control

CCCCCCCCCCCCCCCCCCNC(=O)N(C)Cc1ccccc1
inactive: [13] 99 % of control | [14] 96 % of control | [15] 96 % of control

O=C(Nc1cccc(C(F)(F)F)c1)Nc1ccc([N+](=O)[O-])cc1Cl
inactive: [1] 88 % of control | [2] 97 % of control | [3] 96 % of control

NC1(C(=O)O)C2CC3CC(C2)CC1C3 (stereo not drawn)
inactive: dose: 50.0 mg/kg/injection, schedule: Q01DX009 (ip), vehicle: other 100 % of control | dose: 100.0 mg/kg/injection, schedule: Q01DX009 (ip), vehicle: other 105 % of control | dose: 100.0 mg/kg/injection, schedule: Q04DX003 (ip), vehicle: alcohol 96 % of control | dose: 200.0 mg/kg/injection, schedule: Q01DX009 (ip), vehicle: other 92 % of control | dose: 200.0 mg/kg/injection, schedule: Q04DX003 (ip), vehicle: alcohol 95 % of control

Cc1cc(OCCOC(=O)Nc2cccc(C(F)(F)F)c2)cc(C)c1Cl
inactive: dose: 25.0 mg/kg/injection, schedule: Q01DX009 (ip), vehicle: saline with Tween-80 102 % of control | dose: 50.0 mg/kg/injection, schedule: Q01DX009 (ip), vehicle: saline with Tween-80 102 % of control | dose: 100.0 mg/kg/injection, schedule: Q01DX009 (ip), vehicle: saline with Tween-80 98 % of control and 118 % of control | dose: 200.0 mg/kg/injection, schedule: Q01DX009 (ip), vehicle: saline with Tween-80 93 % of control | dose: 400.0 mg/kg/injection, schedule: Q01DX009 (ip), vehicle: saline with Tween-80 91 % of control

CC(C)(C)C(=O)CC(=O)C(C)(C)C.CC(C)(C)C(=O)CC(=O)C(C)(C)C.CC(C)(C)C(=O)CC(=O)C(C)(C)C.CC(C)(C)C(=O)CC(=O)C(C)(C)C.[Zr]
inactive: dose: 100.0 mg/kg/injection, schedule: Q01DX009 (ip), vehicle: Klucel (hydroxypropylcellulose) (HPC) 96 % of control | [4] 94 % of control | dose: 200.0 mg/kg/injection, schedule: Q01DX009 (ip), vehicle: Klucel (hydroxypropylcellulose) (HPC) 97 % of control | [5] 89 % of control | dose: 400.0 mg/kg/injection, schedule: Q01DX009 (ip), vehicle: Klucel (hydroxypropylcellulose) (HPC) 96 % of control | [6] 101 % of control

CN(C)Cc1ccccc1COC(=O)c1ccc([N+](=O)[O-])cc1Cl
inactive: [13] 102 % of control | [14] 109 % of control | [15] 94 % of control

O=C(O)C(Nc1ccc(Cc2ccc(NC(C(=O)O)c3ccccc3)cc2)cc1)c1ccccc1 (stereo not drawn)
inactive: [13] 100 % of control | [14] 103 % of control | [15] 92 % of control

C(#CCN1CCOCC1)CCCN1CCOCC1
inactive: [9] 96 % of control | [11] 95 % of control | [12] 93 % of control

CC(C)CC(NC(=O)OC(C)(C)C)C(=O)NC(Cc1c[nH]c2ccccc12)C(=O)NN (stereo not drawn)
inactive: dose: 100.0 mg/kg/injection, schedule: Q01DX001 (ip), vehicle: carboxymethylcellulose (CMC) 88 % of control | dose: 400.0 mg/kg/injection, schedule: Q01DX001 (ip), vehicle: carboxymethylcellulose (CMC) 94 % of control
